The values below come from US20060205826A1, “Method of using carotenoids in the prevention of cognitive decline and for other neuroprotection functions” (priority 2005, published 2006).

The subject of data set [1] is GSH. The experiment in a line: GSH content in hippocampus homogenate of diabetic mice. The format is in vivo. The note with it: lutein 0.2 mg/kg p.o. or insulin 500 mU/g s.c. on days 4-13. The procedure: (§1) Male albino mice were used throughout the study, housed in a environmentally regulated room on a dark-light cycle of 12 hours with free access to food and water. Principles of laboratory animal care (NIH publication no. 85-23, revised 1985) were followed, as well as specific Spanish regulations. Animals were made diabetic with a single subcutaneous injection of 200 mg alloxan/kg body weight (66 mg/ml) in 0.1 M citrate buffer, pH 4.5, at day 0 of the experiment. Control mice were injected with the same volume of vehicle also at day 0 of the experiment.
Mice were identified as diabetic on the basis of blood glucose levels (higher than 16 mM at least 4 days after alloxan treatment). Animals were divided into subgroups as required by the experiment (control, control+lutein, diabetic, diabetic+lutein, diabetic+insulin, diabetic+insulin+lutein). Lutein was administered daily at a dose of 0.2 mg/kg p.o since day 4 after alloxan or citrate buffer injection until the end of the experiment. […] Glycated hemoglobin was determined in blood samples obtained by heart puncture immediately before killing the animals.
The GSH content of eye homogenate was quatitated by the method of Reed et al. (Reed et al., 1980). […] These products are quickly separated by HPLC which allows the quantification of nanomolars levels of GSH.

The subject of data set [2] is MDA, a lipid peroxidation product. Kind of data set: MDA concentration by liquid chromatography in serum, eye and hippocampus of diabetic mice. Format: in vivo. As for the experimental part:
as §1
Mice were identified as diabetic on the basis of blood glucose levels (higher than 16 mM at least 4 days after alloxan treatment). Animals were divided into subgroups as required by the experiment (control, control+lutein, diabetic, diabetic+lutein, diabetic+insulin, diabetic+insulin+lutein). […] Insulin treated animals were injected daily with 500 mU/g body weight since day 4 until the end of the experiment. Mice were killed by cervical dislocation on day 14, and hippocampus and retina were removed and homogenized in pre-chilled 0.2 M potassium phosphate buffer, pH 7.0. These homogenates were used to assay protein, GPx activity and MDA and GSH concentrations. Samples were kept frozen (−80° C.) until biochemical assays were performed. Blood was taken from the tail vein daily to assay blood glucose levels. Glycated hemoglobin was determined in blood samples obtained by heart puncture immediately before killing the animals.
MDA, a lipid peroxidation product, concentration was measured by liquid chromatography according to a modification of the method of Richard et al. (1992) as previously described (Romero et al., 1998). Briefly, 0.1 ml of sample (or standard solutions prepared daily from 1,1,3,3-tetramethoxypropane) and 0.75 ml of working solution (thiobarbituric acid 0.37% and perchloric acid 6.4%; 2/1, v/v) were mixed and heated to 95° C. for 1 h. After cooling (10 min in ice water bath), the flocculent precipitate was removed by centrifugation at 3,200×g for 10 min. The supernatant was neutralized and filtered (0.22 μm) prior to injection on an ODS column 5 μm column (250×4.6 mm). Mobile phase consisted in 50 mM phosphate buffer (pH 6.0): methanol (58:42, v/v). Isocratic separation was performed with 1.0 ml/min flow (HPLC System 325, Kontron) and detection at 532 nm (UV/VIS HPLC Detector 332, Kontron). Calibration curves were run daily.

Data set [3] deals with diabetic rodents. The note with it: insulin treatment from the onset of diabetes, Biessels et al 1998; cited from earlier work.
Data set [4] relates to alloxan diabetic mice. Kind of data set: Electroretinogram (ERG) amplitude in diabetic mice. The format is in vivo. The note with it: lutein 100 mg/kg p.o. or insulin 500 mU/g s.c. on days 4-13. The procedure: Male albino mice were used throughout the study, housed in a environmentally regulated room on a dark-light cycle of 12 hours with free access to food and water. Principles of laboratory animal care (NIH publication no. 85-23, revised 1985) were followed, as well as specific Spanish regulations. Animals were made diabetic with a single subcutaneous injection of 200 mg alloxan/kg body weight (66 mg/ml) in 0.1 M citrate buffer, pH 4.5, at day 0 of the experiment. Control mice were injected with the same volume of vehicle also at day 0 of the experiment. Mice were identified as diabetic on the basis of blood glucose levels (higher than 16 mM at least 4 days after alloxan treatment). Animals were divided into subgroups as required by the experiment (control, control+lutein, diabetic, diabetic+lutein, diabetic+insulin, diabetic+insulin+lutein). […] Insulin treated animals were injected daily with 500 mU/g body weight since day 4 until the end of the experiment. Mice were killed by cervical dislocation on day 14, and hippocampus and retina were removed and homogenized in pre-chilled 0.2 M potassium phosphate buffer, pH 7.0. These homogenates were used to assay protein, GPx activity and MDA and GSH concentrations. […] Glycated hemoglobin was determined in blood samples obtained by heart puncture immediately before killing the animals.

Data set [5] has as its system GPx activity. The experiment in a line: GPx activity in eye and hippocampus homogenate of diabetic mice. The format is in vivo. As for the experimental part:
Male albino mice were used throughout the study, housed in a environmentally regulated room on a dark-light cycle of 12 hours with free access to food and water. Principles of laboratory animal care (NIH publication no. 85-23, revised 1985) were followed, as well as specific Spanish regulations. Animals were made diabetic with a single subcutaneous injection of 200 mg alloxan/kg body weight (66 mg/ml) in 0.1 M citrate buffer, pH 4.5, at day 0 of the experiment. Control mice were injected with the same volume of vehicle also at day 0 of the experiment. Mice were identified as diabetic on the basis of blood glucose levels (higher than 16 mM at least 4 days after alloxan treatment). Animals were divided into subgroups as required by the experiment (control, control+lutein, diabetic, diabetic+lutein, diabetic+insulin, diabetic+insulin+lutein). […] Insulin treated animals were injected daily with 500 mU/g body weight since day 4 until the end of the experiment. Mice were killed by cervical dislocation on day 14, and hippocampus and retina were removed and homogenized in pre-chilled 0.2 M potassium phosphate buffer, pH 7.0. These homogenates were used to assay protein, GPx activity and MDA and GSH concentrations. Samples were kept frozen (−80° C.) until biochemical assays were performed. Blood was taken from the tail vein daily to assay blood glucose levels. Glycated hemoglobin was determined in blood samples obtained by heart puncture immediately before killing the animals. GPx activity was assayed as reported by Lawrence et al. (1978) towards hydrogen peroxide. The disappearance of NADPH was followed spectrophotometrically at 340 nm. The reaction mixture consisted of 240 mU/ml of glutathione disulfide reductase, 1 mM GSH, 0.15 mM NADPH in 0.1 M potassium phosphate buffer, pH 7.0, containing 1 mM EDTA and 1 mM sodium azide; 50 μl sample were added to this mixture and allowed to equilibrate at 37° C. for 3 min. reaction was started by the addition of 1.5 mM hydrogen peroxide to adjust the final volume of the assay mixture to 1 ml.

For data set [6], the system named is diabetic rats. The note with it: Lupien et al. (2003); cited from earlier work.
Data set [7] deals with diabetic mouse brain. The note with it: diabetic mice killed 20 days after streptozotocin administration; Saravia et al. 2004; cited from earlier work.
The mark [8] stands for this setting: lutein 100 mg/kg p.o. or insulin 500 mU/g body weight s.c. on days 4-13.

Entries after “also recorded” stand apart in the source; their conditions may differ.

With insulin [reference compound], in data set [1], the “GSH content in hippocampus homogenate” value is on record as “restored”. The “MDA levels in hippocampus” value in data set [2] (lutein 0.2 mg/kg p.o. or insulin 500 mU/g body weight s.c. on days 4-13) is given as “restored; also recorded: able to prevent this effect”. Further, in data set [2] (setting [8]), the “MDA levels in ocular tissue” value is reported as “restored; also recorded: able to prevent this effect” and the “MDA levels in serum” value is reported as “restored”. For the same compound, the “learning impairment in Morris water maze” value in data set [3] is on record as “can prevent this learning impairment”. The “ERG amplitude (mostly b-wave)” value in data set [4] is “partially reversed”. Besides, the “retinal GPx activity” value in data set [5] (eye homogenate without lens, lutein 100 mg/kg p.o. or insulin 500 mU/g s.c. on days 4-13) is listed as “partially reversed”. Further, in data set [5] (lutein 0.2 mg/kg p.o. or insulin 500 mU/g s.c. on days 4-13), the “GPx activity in hippocampus homogenate” value is “restored”.
Consider IGF-I, for which, in data set [6], the “cognition-related performance in the water maze” value is “prevent loss of cognition-related performance”.
`C[C@]12CC[C@@H]3c4ccc(O)cc4CC[C@H]3[C@@H]1CC[C@@H]2O` [17beta-oestradiol]: the brain cell proliferation entry in data set [7] is “restored”.
